From PubChem BioAssay (NCI)
Values joined by “and” are separate entries in the source; they are usually repeats but may differ in a detail not shown here. Equal entries are not always repeated.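 Dose response: 5 concentrations. Exposure: 48 h. Format: 96-well plates. Endpoint: linear interpolation; highest concentration if not reached. Abbreviation: GI50, concentration required for 50% inhibition of growth. TGI: total growth inhibition.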

Assays:
Test in all cases: growth of human tumour cells (NCI), 48 h
NCI-H522 lung = system: NCI-H522 lung
SK-MEL-2 melanoma = system: SK-MEL-2 melanoma
SN12C renal = system: SN12C renal
HS 578T breast = system: HS 578T breast
CCRF-CEM leukemia = system: CCRF-CEM leukemia
OVCAR-5 ovarian = system: OVCAR-5 ovarian
SF-295 CNS = system: SF-295 CNS
CAKI-1 renal = system: CAKI-1 renal
HOP-92 NSCLC = system: HOP-92 NSCLC
HCC-2998 colon = system: HCC-2998 colon

SMILES	GI50 (NCI-H522 lung)	TGI (NCI-H522 lung)	GI50 (SK-MEL-2 melanoma)	TGI (SK-MEL-2 melanoma)	GI50 (SN12C renal)	TGI (SN12C renal) [µM]	GI50 (HS 578T breast)	TGI (HS 578T breast)	GI50 (CCRF-CEM leukemia)	TGI (CCRF-CEM leukemia) [µM]	GI50 (OVCAR-5 ovarian)	TGI (OVCAR-5 ovarian)	GI50 (SF-295 CNS)	TGI (SF-295 CNS)	GI50 (CAKI-1 renal)	TGI (CAKI-1 renal) [µM]	GI50 (HOP-92 NSCLC)	TGI (HOP-92 NSCLC)	GI50 (HCC-2998 colon)	TGI (HCC-2998 colon)
COc1ccc(-n2cc(-c3cc(OC)c(OC)c(OC)c3)nc2SCc2ccccc2)cc1OC	41.8 µM	> 100 µM	> 100 µM	> 100 µM	> 100 µM	> 100	> 100 µM	> 100 µM	> 100 µM	> 100	> 100 µM	> 100 µM	> 100 µM	> 100 µM	> 96.6 µM	> 100	6.45 µM	> 29.5 µM	> 100 µM	> 100 µM
O=c1[nH]c(=O)c2cc(C3CC(O)C(CO)O3)ccc2[nH]1 (stereo not drawn)	> 100 µM	> 100 µM	> 100 µM	> 100 µM	> 100 µM	> 100	> 100 µM	> 100 µM	> 100 µM	> 100	> 100 µM	> 100 µM	> 100 µM	> 100 µM	> 100 µM	> 100	> 100 µM	> 100 µM	> 100 µM	> 100 µM
Cc1ccc2c(c1)C(C)Cc1c(Cl)ncnc1N2C (stereo not drawn)	2.67 µM	8.03 µM	3.03 µM	8.1 µM	3.64 µM	13.7	1.89 µM	34 µM	3.82 µM	> 100	5.05 µM	49.3 µM	3.12 µM	25.2 µM	3.22 µM	> 100	2.92 µM	8.5 µM	3.54 µM	18.3 µM
O=C1C=CC[C@H](/C=C/c2ccccc2)O1	2.72 µM	> 25.4 µM	6.57 µM	34.2 µM	3.55 µM	17.9	3.15 µM	30.4 µM	9.5 µM	> 50.2	1.92 µM	10.4 µM	2.54 µM	> 40.9 µM	1.05 µM	14.4	1.19 µM	18.3 µM	0.642 µM	3.42 µM
COc1ccccc1N1CCN(CCc2c[nH]c3cc4c(cc23)OCO4)CC1	44.2 µM	> 100 µM	21.3 µM	56.3 µM	23.5 µM	> 100	20.1 µM	70.9 µM	29.8 µM	> 100	15.5 µM	> 100 µM	0.646 µM	27.7 µM	18.5 µM	60.8	14.3 µM	> 100 µM	16.5 µM	32.6 µM
CNCCNc1c2c(c(NCCNC)c3[nH]ccc13)C(=O)c1ccccc1C2=O	0.117 µM	0.339 µM	0.581 µM	2.55 µM	< 0.0257 µM	0.097	0.565 µM	1.65 µM	0.0148 µM	0.203	0.536 µM	1.93 µM	0.139 µM	0.901 µM	0.278 µM	1.15	0.418 µM	2.37 µM	0.203 µM	0.649 µM
COc1cc2c(cc1OCCCCCOc1ccc(-n3c(C)nc4ccccc4c3=O)cc1)N=C[C@@H]1CCCN1C2=O	0.204 µM	0.958 µM	0.377 µM	1.25 µM	0.264 µM	3.38	0.232 µM	0.88 µM	0.21 µM	0.588	0.281 µM	0.678 µM	0.391 µM	1.83 µM	0.275 µM	1.02	0.394 µM	7.38 µM	0.256 µM	0.685 µM
COc1ccc(C(=O)/C=C/c2ccc3c(c2)OCO3)c(OCc2ccccc2)c1	–	> 100 µM	–	> 100 µM	–	> 100	–	> 100 µM	–	> 26.9	–	> 100 µM	–	> 100 µM	–	> 100	–	> 100 µM	–	> 100 µM
Nc1nc(N)c2c(n1)NC(c1ccc(F)cc1)C1CCc3ccccc3C1=N2 (stereo not drawn)	5.66 µM	21.2 µM	5.73 µM	19.6 µM	7.8 µM	21.6	10.2 µM	34.6 µM	–	–	13.1 µM	26.3 µM	1.71 µM	6.18 µM	2.72 µM	16.2	1.17 µM	6.59 µM	2.44 µM	6.67 µM
COC(=O)CCC1CCC(c2cc(F)ccc2F)(S(=O)(=O)c2ccc(Cl)cc2)CC1 (stereo not drawn)	62.4 µM	> 100 µM	62 µM	> 100 µM	> 100 µM	> 100	> 100 µM	> 100 µM	> 100 µM	> 100	> 100 µM	> 100 µM	> 100 µM	> 100 µM	6 µM	> 100	15.4 µM	> 100 µM	> 100 µM	> 100 µM
CCN(CC)CCn1c2ccccc2c(=O)c2c(O)ccc(O)c21	–	35.9 µM	–	50.4 µM	–	45.6	–	53.5 µM	–	> 90.2	–	> 78.5 µM	–	56.1 µM	–	61.5	–	39.9 µM	–	> 57.7 µM
CC1(O)CC(c2nc(-c3ccc4ccc(-c5ccccc5)nc4c3)c3c(N)nccn23)C1 (stereo not drawn)	12 µM and > 10 µM	35.5 µM and > 10 µM	10.1 µM and 6.63 µM	60.6 µM and > 10 µM	9.64 µM and > 10 µM	> 80.9	13.8 µM and 4.28 µM	51.9 µM and > 10 µM	9.89 µM and > 10 µM	> 100	12.1 µM and > 10 µM	44.7 µM and > 10 µM	12.5 µM and > 10 µM	48.1 µM and > 10 µM	4.58 µM and 2.16 µM	> 100	0.0272 µM and 0.0625 µM	1.15 µM and 1.43 µM	6.71 µM and > 10 µM	27.3 µM and > 10 µM
Oc1ccccc1C=Nc1nc(SCc2ccccc2)nc2[nH]ncc12	50.9 µM	> 100 µM	> 100 µM	> 100 µM	> 100 µM	> 100	11 µM	44.7 µM	45.7 µM	> 100	> 100 µM	> 100 µM	52 µM	> 100 µM	47.6 µM	> 100	12.4 µM	71.1 µM	47.9 µM	> 100 µM
